As usually defined, the inhibition is the relative decrease from the control value, in per cent. For orientation: IC50 means the concentration at which inhibition is half-maximal. A lower IC50 goes with inhibition by little substance.

Where two headings read alike, the source gives them in different places. Where only a bound is given, the exact number is not on record here.

The target of this test is T1, human SARM1(50-724) (Homo sapiens, UniProt Q6SZW1).
T1 construct: 40 nM human SARM1(50-724)
T1 sequence (Q6SZW1 50-724): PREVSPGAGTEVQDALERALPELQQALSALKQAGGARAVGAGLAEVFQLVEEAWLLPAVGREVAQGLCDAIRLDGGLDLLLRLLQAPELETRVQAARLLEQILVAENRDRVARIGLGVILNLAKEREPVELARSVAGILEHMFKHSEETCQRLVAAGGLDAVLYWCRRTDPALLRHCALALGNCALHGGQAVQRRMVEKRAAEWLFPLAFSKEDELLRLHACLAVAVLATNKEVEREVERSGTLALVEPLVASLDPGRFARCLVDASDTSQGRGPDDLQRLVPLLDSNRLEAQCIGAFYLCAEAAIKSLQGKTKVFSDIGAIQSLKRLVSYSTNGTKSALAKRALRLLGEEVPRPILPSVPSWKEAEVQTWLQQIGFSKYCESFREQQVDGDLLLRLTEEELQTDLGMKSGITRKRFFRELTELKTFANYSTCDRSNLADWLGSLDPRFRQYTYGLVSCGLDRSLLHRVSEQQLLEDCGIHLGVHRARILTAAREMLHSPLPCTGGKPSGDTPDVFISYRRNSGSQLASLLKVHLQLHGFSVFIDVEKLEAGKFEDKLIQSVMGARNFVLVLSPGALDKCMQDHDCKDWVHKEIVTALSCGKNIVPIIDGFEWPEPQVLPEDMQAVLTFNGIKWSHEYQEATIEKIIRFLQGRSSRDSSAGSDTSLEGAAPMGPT
In words: SARM1 NADase biochemical assay (HPLC peak areas of NAD and NAM). The settings on record: for IC50: dose-response, 1:3 serial dilution from 100 μM, 40 nM SARM1, 0.3 mM NMN, 20 μM NAD, 60 min rt. The method, then:
The reaction was incubated at room temperature for 60 minutes and quenched with 20 μL of 0.4% formic acid. […] Total run time for each sample was 4 minutes. […] Samples were run at a flow rate of 0.8 mL/min at 55° C. Peak areas of NAD and NAM were determined using OpenLAB CDS (Chem Station edition) software. For dose-response, the compound was diluted serially 1:3 in DMSO and added to the reaction starting at a final compound concentration of 100 μM in 1% DMSO.

[1] abbreviates: 50 μM compound, NAD peak area, read-out: Avg NAD % inhibition at 50 μM.
[2] abbreviates: 50 μM compound, NAM peak area, read-out: Avg NAM % inhibition at 50 μM.

For the compound `O=C(Nc1ccn(Cc2ccncc2)n1)c1ccc(O)c(O)c1` [Example 73, 3,4-Dihydroxy-N-(1-(pyridin-4-ylmethyl)-1H-pyrazol-3-yl)benzamide], the inhibition at 50 µM under setting [1] is 51 to 100%.
Take `Cc1cnccc1C(C)n1ccc(NCC(F)(F)F)n1` (racemic) [Example 14, (rac)-1-(1-(3-Methylpyridin-4-yl)ethyl)-N-(2,2,2-trifluoroethyl)-1H-pyrazol-3-amine]: the IC50 fell in the range of 1 to 10 µM.
In the case of `O=C(Nc1ccn(Cc2ccncc2)n1)c1ccc2c(c1)CCO2` [Example 39, N-(1-(Pyridin-4-ylmethyl)-1H-pyrazol-3-yl)-2,3-dihydrobenzofuran-5-carboxamide], the inhibition at 50 µM under setting [1] was 0 to 50% and the inhibition at 50 µM under setting [2] was in the range of 0 to 50%.
Regarding “(R)-3-Fluoro-4-(1-(1-(2,2,2-trifluoroethyl)-1H-pyrazol-3-yl)ethyl)pyridine and (S)-3-Fluoro-4-(1-(1-(2,2,2-trifluoroethyl)-1H-pyrazol-3-yl)ethyl)pyridine [Example 78]”, the IC50 lay in the range of 1 to 10 µM.
Still for that read-out and setting: the value for “(R)-2-(1-(1-(pyridin-4-yl)ethyl)-1H-pyrazol-3-yl)acetonitrile and (S)-2-(1-(1-(pyridin-4-yl)ethyl)-1H-pyrazol-3-yl)acetonitrile [Example 28]” was 1 to 10 µM.
Regarding `O=C(Nc1ccn(Cc2ccncc2)n1)c1ccccc1Cl` [Example 53, 2-Chloro-N-(1-(pyridin-4-ylmethyl)-1H-pyrazol-3-yl)benzamide], the inhibition at 50 µM reads like this: under setting [1], 0 to 50%; under setting [2], 0 to 50%.
As for `O=S(=O)(Nc1ccn(Cc2ccncc2)n1)c1cccc(F)c1` [Example 76, 3-Fluoro-N-(1-(pyridin-4-ylmethyl)-1H-pyrazol-3-yl)benzenesulfonamide], the IC50 was 1 to 10 µM. The inhibition at 50 µM under setting [1] lay in the range of 0 to 50%. For the same compound, the inhibition at 50 µM under setting [2] lay within 0 to 50%.
Consider `FCCNc1ccn(Cc2ccncc2)n1` [Example 96, N-(2-Fluoroethyl)-1-(pyridin-4-ylmethyl)-1H-pyrazol-3-amine], for which the inhibition at 50 µM reads like this: (read-out: Avg NAD % inhibition at 50 μM) 51 to 100%; (read-out: Avg NAM % inhibition at 50 μM) 51 to 100%.
For `COc1cccc(C(=O)Nc2ccn(Cc3ccncc3)n2)c1` [Example 43, 3-Methoxy-N-(1-(pyridin-4-ylmethyl)-1H-pyrazol-3-yl)benzamide], the inhibition at 50 µM reads like this: under setting [1], 0 to 50%; under setting [2], 0 to 50%.
As to `O=C(Nc1ccn(Cc2ccncc2)n1)c1ccc2c(c1)CCC2` [Example 40, N-(1-(Pyridin-4-ylmethyl)-1H-pyrazol-3-yl)-2,3-dihydro-1H-indene-5-carboxamide], the inhibition at 50 µM reads like this: under setting [1], 0 to 50%; under setting [2], 0 to 50%.
`c1cc(Cn2ccc(NC3CCC3)n2)ccn1` [Example 97, N-Cyclobutyl-1-(pyridin-4-ylmethyl)-1H-pyrazol-3-amine]: the inhibition at 50 µM was in the range of 0 to 50% under setting [1] and 0 to 50% under setting [2].
For the compound “(S)—N-(2,2-Difluoroethyl)-1-(1-(pyridin-4-yl)ethyl)-1H-pyrazol-3-amine and (R)—N-(2,2-Difluoroethyl)-1-(1-(pyridin-4-yl)ethyl)-1H-pyrazol-3-amine [Example 8b]”, the IC50 is less than 1 µM.
Compound `C[C@H](c1ccncc1)n1ccc(NCC(F)(F)F)n1` [Example 89, (R)-1-(1-(Pyridin-4-yl)ethyl)-N-(2,2,2-trifluoroethyl)-1H-pyrazol-3-amine] gave an IC50 of 10 to 100 µM.
Compound `CC(c1ccncc1)c1ccn(Cc2ccccc2)n1` (racemic) [Example 92, (rac)-4-(1-(1-Benzyl-1H-pyrazol-3-yl)ethyl)pyridine] gave an IC50 of 10 to 100 µM.
Consider `CC(c1ccncc1)n1ccc(NC(=O)c2ccc3c(c2)OCO3)n1` (racemic) [Example 19, (rac)-N-(1-(1-(Pyridin-4-yl)ethyl)-1H-pyrazol-3-yl)benzo[d][1,3]dioxole-5-carboxamide], for which the IC50 is 1 to 10 µM.
As for `FC(F)(F)CNc1ccn(Cc2ccncc2)n1` [Example 26, 1-(Pyridin-4-ylmethyl)-N-(2,2,2-trifluoroethyl)-1H-pyrazol-3-amine], the 50% inhibitory concentration (IC50) lay within 10 to 100 µM. Further, the inhibition at 50 µM under setting [1] lay in the range of 0 to 50%. Besides, the inhibition at 50 µM under setting [2] lay within 0 to 50%.

Source of the values: US11945796B2, “Substituted pyridine derivatives as SARM1 inhibitors” (Nura Bio, Inc., priority 2020, dated 2024).
